The results in this text go back to patent US9283222B2 (priority 2006, dated 2016).

What is called Ki is a measure of affinity in units of concentration, obtained from inhibition or displacement.

SMILES strings stand for the structures.

This test deals with Recombinant Human Poly(ADP-Ribose) Polymerase (PARP), PARP-1 (Homo sapiens (Human), UniProt P09874). The settings on record: read-out: PARP-1 (Ki); Table 1; text calls the values EC50s.
Chain of Recombinant Human Poly(ADP-Ribose) Polymerase (PARP), PARP-1 (P09874 whole entry): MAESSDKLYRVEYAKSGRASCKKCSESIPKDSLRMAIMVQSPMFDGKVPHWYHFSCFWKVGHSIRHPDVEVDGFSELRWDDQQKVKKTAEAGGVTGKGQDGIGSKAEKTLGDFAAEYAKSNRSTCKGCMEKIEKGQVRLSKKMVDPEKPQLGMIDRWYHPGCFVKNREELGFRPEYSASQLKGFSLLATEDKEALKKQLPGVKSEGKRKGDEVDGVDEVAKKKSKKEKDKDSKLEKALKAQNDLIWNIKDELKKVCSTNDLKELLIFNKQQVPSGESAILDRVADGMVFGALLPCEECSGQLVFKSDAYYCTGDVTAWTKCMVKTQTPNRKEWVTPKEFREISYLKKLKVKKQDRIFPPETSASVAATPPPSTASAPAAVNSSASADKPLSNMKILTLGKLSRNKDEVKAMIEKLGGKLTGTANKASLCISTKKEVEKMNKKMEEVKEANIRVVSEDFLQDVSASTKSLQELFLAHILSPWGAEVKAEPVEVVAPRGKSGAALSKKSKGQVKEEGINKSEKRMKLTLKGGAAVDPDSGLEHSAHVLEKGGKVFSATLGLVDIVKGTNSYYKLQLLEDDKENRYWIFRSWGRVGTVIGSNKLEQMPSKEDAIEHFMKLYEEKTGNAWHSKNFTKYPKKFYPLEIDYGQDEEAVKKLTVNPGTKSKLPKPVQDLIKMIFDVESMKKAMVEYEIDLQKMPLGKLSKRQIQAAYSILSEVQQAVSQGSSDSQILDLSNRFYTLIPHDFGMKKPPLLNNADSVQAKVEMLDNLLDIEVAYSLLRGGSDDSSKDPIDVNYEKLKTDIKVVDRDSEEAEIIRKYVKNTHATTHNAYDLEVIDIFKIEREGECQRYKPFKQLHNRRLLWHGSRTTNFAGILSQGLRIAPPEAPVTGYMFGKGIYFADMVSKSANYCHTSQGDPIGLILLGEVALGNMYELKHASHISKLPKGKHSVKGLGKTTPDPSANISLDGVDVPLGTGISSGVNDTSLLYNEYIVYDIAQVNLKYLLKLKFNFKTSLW

For `O=C(NC1CC1)c1cccc(-c2cc(CCc3n[nH]c(=O)c4c3CCCC4)ccc2F)c1` [Example 270, N-cyclopropyl-2′-fluoro-5′-(2-(4-oxo-3,4,5,6,7,8-hexahydrophthalazin-1-yl)ethyl)-1,1′-biphenyl-3-carboxamide], the Ki stood at 487 nM. The figure for `CN(C)CCN(C)C(=O)c1cc(Cc2n[nH]c(=O)c3c2NCCC3)ccc1F` [Example 513, N-[2-(dimethylamino)ethyl]-2-fluoro-N-methyl-5-[(5-oxo-1,2,3,4,5,6-hexahydropyrido[2,3-d]pyridazin-8-yl)methyl]benzamide] is 6 nM; for `O=C(NC1CCN(C(=O)c2cscn2)CC1)c1cc(Cc2n[nH]c(=O)c3c2NCCC3)ccc1F` [Example 731, 2-fluoro-5-[(5-oxo-1,2,3,4,5,6-hexahydropyrido[2,3-d]pyridazin-8-yl)methyl]-N-[1-(1,3-thiazol-4-ylcarbonyl)piperidin-4-yl]benzamide] it is 11 nM. In the case of `O=C(c1cccc(Cc2n[nH]c(=O)c3c2CCCC3)c1)N1CCN(c2ccc(F)cc2)CC1` [Example 445, 4-(3-((4-(4-fluorophenyl)piperazin-1-yl)carbonyl)benzyl)-5,6,7,8-tetrahydrophthalazin-1(2H)-one], the inhibition constant (Ki) is 6 nM. To `COc1ccc(NC(=O)c2cccc(Cc3n[nH]c(=O)c4c3CCCC4)c2)cc1O` [Example 353, N-(3-hydroxy-4-methoxyphenyl)-3-((4-oxo-3,4,5,6,7,8-hexahydrophthalazin-1-yl)methyl)benzamide] belongs 59 nM. With `CC1(C)SCNC1C(=O)N1CCN(C(=O)c2cc(Cc3n[nH]c(=O)c4c3NCCC4)ccc2F)CC1` (centres unmarked) [Example 692, 8-[3-({4-[(5,5-dimethyl-1,3-thiazolidin-4-yl)carbonyl]piperazin-1-yl}carbonyl)-4-fluorobenzyl]-2,3,4,6-tetrahydropyrido[2,3-d]pyridazin-5(1H)-one], the Ki came out at 1.6 nM. With `O=C1CNC(=O)N1c1cc(Cc2n[nH]c(=O)c3c2CCCC3)ccc1F` [Example 630, 3-{2-fluoro-5-[(4-oxo-3,4,5,6,7,8-hexahydrophthalazin-1-yl)methyl]phenyl}imidazolidine-2,4-dione], the Ki was determined as 0.7 nM. The figure for `O=C(NCCCN1CCCCC1)c1cccc(Cc2n[nH]c(=O)c3c2CCCC3)c1` [Example 316, 3-((4-oxo-3,4,5,6,7,8-hexahydrophthalazin-1-yl)methyl)-N-(3-piperidin-1-ylpropyl)benzamide] is 34 nM; for `CNC(=O)c1ccc(Cc2n[nH]c(=O)c3c2CCCC3)cn1` [Example 93, N-methyl-5-((4-oxo-3,4,5,6,7,8-hexahydrophthalazin-1-yl)methyl)pyridine-2-carboxamide] it is 840 nM.

Regarding `O=C(NCCc1ccccc1Cl)c1cccc(Cc2n[nH]c(=O)c3c2CCCC3)c1` [Example 388, N-(2-(2-chlorophenyl)ethyl)-3-((4-oxo-3,4,5,6,7,8-hexahydrophthalazin-1-yl)methyl)benzamide], the Ki stood at 88 nM. The figure for `O=C1CC[C@@H]2COc3ccc(Cc4n[nH]c(=O)c5c4CCCC5)cc3N12` [Example 371] is 14 nM; for `O=C(c1cc(Cc2n[nH]c(=O)c3c2CCCC3)ccc1F)N1CCN(c2cccnc2)CC1` [Example 756, 4-{4-fluoro-3-[(4-pyridin-3-ylpiperazin-1-yl)carbonyl]benzyl}-5,6,7,8-tetrahydrophthalazin-1(2H)-one] it is 0.9 nM; for `O=C(CCc1ccccc1Cl)Nc1cccc(Cc2n[nH]c(=O)c3c2CCCC3)c1` [Example 168, 3-(2-chlorophenyl)-N-(3-((4-oxo-3,4,5,6,7,8-hexahydrophthalazin-1-yl)methyl)phenyl)propanamide] it is 127 nM. Consider `O=C1CCCN1c1cccc(Cc2n[nH]c(=O)c3c2CCCC3)c1` [Example 100, 4-(3-(2-oxopyrrolidin-1-yl)benzyl)-5,6,7,8-tetrahydrophthalazin-1(2H)-one], for which the Ki came out at 39 nM. As for `O=C(c1cc[nH]n1)N1CCN(C(=O)c2cc(Cc3n[nH]c(=O)c4c3CCCC4)ccc2F)CC1` [Example 678, 4-(4-fluoro-3-{[4-(1H-pyrazol-3-ylcarbonyl)piperazin-1-yl]carbonyl}benzyl)-5,6,7,8-tetrahydrophthalazin-1(2H)-one], the Ki was determined as 1.1 nM. In the case of `O=C(NCCc1cccnc1)c1cccc(Cc2n[nH]c(=O)c3c2CCCC3)c1` [Example 380, 3-((4-oxo-3,4,5,6,7,8-hexahydrophthalazin-1-yl)methyl)-N-(2-pyridin-3-ylethyl)benzamide], the Ki was determined as 71 nM.

In the case of `CC1(C)C(=O)NCCN1C(=O)c1cc(Cc2n[nH]c(=O)c3c2NCCC3)ccc1F` [Example 667, 8-{3-[(2,2-dimethyl-3-oxopiperazin-1-yl)carbonyl]-4-fluorobenzyl}-2,3,4,6-tetrahydropyrido[2,3-d]pyridazin-5(1H)-one], the Ki turned out to be 20 nM. Take `COc1ccc(NC(=O)c2cccc(Cc3n[nH]c(=O)c4c3CCCC4)c2)cc1F` [Example 346, N-(3-fluoro-4-methoxyphenyl)-3-((4-oxo-3,4,5,6,7,8-hexahydrophthalazin-1-yl)methyl)benzamide]: the Ki is 33 nM. To `CC(C)(C)C(=O)N1CCN(C(=O)c2cc(Cc3n[nH]c(=O)c4c3CCCC4)ccc2F)CC1` [Example 587, 4-(3-[4-(2,2-dimethylpropanoyl)piperazin-1-yl]carbonyl-4-fluorobenzyl)-5,6,7,8-tetrahydrophthalazin-1(2H)-one] belongs 1 nM.

As to `CCN(CCNC(=O)c1cccnc1)C(=O)c1cc(Cc2n[nH]c(=O)c3c2CCCC3)ccc1F` [Example 763, N-[2-(ethyl{2-fluoro-5-[(4-oxo-3,4,5,6,7,8-hexahydrophthalazin-1-yl)methyl]benzoyl}amino)ethyl]nicotinamide], the Ki is 1 nM. The figure for `O=C(CNC(=O)c1ccccc1)Nc1cccc(Cc2n[nH]c(=O)c3c2CCCC3)c1` [Example 160, N-(2-oxo-2-(3-((4-oxo-3,4,5,6,7,8-hexahydrophthalazin-1-yl)methyl)phenylamino)ethyl)benzamide] is 11 nM; for `O=C(c1ccc2[nH]cnc2c1)N1CCN(C(=O)c2cc(Cc3n[nH]c(=O)c4c3CCCC4)ccc2F)CC1` [Example 680, 4-(3-{[4-(1H-benzimidazol-5-ylcarbonyl)piperazin-1-yl]carbonyl}-4-fluorobenzyl)-5,6,7,8-tetrahydrophthalazin-1(2H)-one] it is 1.1 nM; for `O=C(c1cc(Cc2n[nH]c(=O)c3c2CCCC3)ccc1F)N1CCN(CCN2CCOCC2)CC1` [Example 571, 4-(4-fluoro-3-{[4-(2-morpholin-4-ylethyl)piperazin-1-yl]carbonyl}benzyl)-5,6,7,8-tetrahydrophthalazin-1(2H)-one] it is 4 nM.

For `O=C(c1cc(Cc2n[nH]c(=O)c3c2CCCC3)ccc1F)N1CCN(c2cccc(C(F)(F)F)c2)CC1` [Example 621, 4-[4-fluoro-3-({4-[3-(trifluoromethyl)phenyl]piperazin-1-yl}carbonyl)benzyl]-5,6,7,8-tetrahydrophthalazin-1(2H)-one], the Ki was 8 nM. Take `O=C(CCC(=O)c1ccccc1)Nc1cccc(CCc2n[nH]c(=O)c3c2CCCC3)c1` [Example 294, 4-oxo-N-(3-(2-(4-oxo-3,4,5,6,7,8-hexahydrophthalazin-1-yl)ethyl)phenyl)-4-phenylbutanamide]: the Ki was 204 nM. In the case of `O=C(c1ccc2cc[nH]c2c1)N1CCN(C(=O)c2cc(Cc3n[nH]c(=O)c4c3NCCC4)ccc2F)CC1` [Example 611, 8-(4-fluoro-3-{[4-(1H-indol-6-ylcarbonyl)piperazin-1-yl]carbonyl}benzyl)-2,3,4,6-tetrahydropyrido[2,3-d]pyridazin-5(1H)-one], the Ki was determined as 1.6 nM.

On to `Nc1cccc(CCc2n[nH]c(=O)c3c2CCCC3)c1` [Example 260, 4-(2-(3-aminophenyl)ethyl)-5,6,7,8-tetrahydrophthalazin-1(2H)-one], for which the Ki was 243 nM. Take `O=C(c1cscn1)N1CCN(C(=O)c2cc(Cc3n[nH]c(=O)c4c3CCCC4)ccc2F)CC1` [Example 674, 4-(4-fluoro-3-{[4-(1,3-thiazol-4-ylcarbonyl)piperazin-1-yl]carbonyl}benzyl)-5,6,7,8-tetrahydrophthalazin-1(2H)-one]: the Ki came to 1.1 nM. As to `CSc1ccc(NC(=O)c2cccc(Cc3n[nH]c(=O)c4c3CCCC4)c2)cc1` [Example 361, N-(4-(methylthio)phenyl)-3-((4-oxo-3,4,5,6,7,8-hexahydrophthalazin-1-yl)methyl)benzamide], the Ki was determined as 76 nM. To `COC(=O)c1ncccc1Cc1n[nH]c(=O)c2c1CCCC2` [Example 85, methyl 3-((4-oxo-3,4,5,6,7,8-hexahydrophthalazin-1-yl)methyl)pyridine-2-carboxylate] belongs 396 nM; to `O=C(c1cc(Cc2n[nH]c(=O)c3c2NCCC3)ccc1F)N1CCN(c2ccccc2F)CC1` [Example 549, 8-(4-fluoro-3-{[4-(2-fluorophenyl)piperazin-1-yl]carbonyl}benzyl)-2,3,4,6-tetrahydropyrido[2,3-d]pyridazin-5(1H)-one], 1 nM.

Take `O=C(NCC1CCCCN1)c1cccc(Cc2n[nH]c(=O)c3c2CCCC3)c1` (centres unmarked) [Example 62, 3-((4-oxo-3,4,5,6,7,8-hexahydrophthalazin-1-yl)methyl)-N-(piperidin-2-ylmethyl)benzamide]: the Ki came out at 42 nM.

With `CN(C(=O)Nc1cc(Cc2n[nH]c(=O)c3c2CCCC3)ccc1F)c1ccccc1` [Example 618, N′-{2-fluoro-5-[(4-oxo-3,4,5,6,7,8-hexahydrophthalazin-1-yl)methyl]phenyl}-N-methyl-N-phenylurea], the Ki came to 41 nM. Consider `CN1CCN(CCNC(=O)c2cc(Cc3n[nH]c(=O)c4c3CCCC4)ccc2F)CC1` [Example 578, 2-fluoro-N-[2-(4-methylpiperazin-1-yl)ethyl]-5-[(4-oxo-3,4,5,6,7,8-hexahydrophthalazin-1-yl)methyl]benzamide], for which the Ki stood at 1.1 nM. Turning to `CS(=O)(=O)Nc1cccc(Cc2n[nH]c(=O)c3c2CCCC3)c1` [Example 114, N-(3-((4-oxo-3,4,5,6,7,8-hexahydrophthalazin-1-yl)methyl)phenyl)methanesulfonamide], the Ki came out at 65 nM.
